Holding throughout (type): cell-based
For one assay, the system named is 16R6-3. The experiment in a line: Cell growth inhibition assay (Cell Titer Glo, 3 days). The conditions noted are these: Homo sapiens; 16R6-3, melanoma, Compound A resistant clone; BRAF_V600E, KRAS WT; mean ± std; read-out: IC50 Single Agent. On the procedure:
(§1) Human colon tumor lines, Colo205, DLD1, HCC2998, HCT15, HCT8, HT29, KM-12, LS1034, LS174T, NCI-H508, RKO, SW1417, SW1463, SW480, SW837 and T84, and human melanoma line A375 were from ATCC. A375PF11 was derived from A375, 12R5-1, 12R5-3, 12R8-1, 12R8-3, 16R5-2, 16R6-3 and 16R6-4 are single cell clones derived from mixed populations of A375PF11 cells that were selected to grow in Compound A to concentrations of 1200 and 1600 nM. All lines were cultured in RPMI 1640 medium containing 10% fetal bovine serum (FBS).
(§2) All cells were cultured for a minimum of 72 hours prior to cell plating. Cells were assayed in a 96-well tissue culture plate (NUNC 136102) of RPMI medium containing 10% FBS for all cells at 1,000 cells per well. Approximately 24 hours after plating, cells were exposed to ten, three-fold serial dilutions of compound or the combination of the two agents at a constant molar to molar ratio of 1:10 Compound A to Compound B in RPMI media containing 10% FBS. Cells were incubated in the presence of compounds for 3 days. ATP levels were determined by adding Cell Titer Glo® (Promega) according to the manufacturer's protocol. Briefly, Cell Titer Glo® was added each plate, incubated for 30 minutes then luminescent signal was read on the SpectraMax L plate reader with a 0.5 sec integration time.
(§3) Inhibition of cell growth was estimated after treatment with compound or combination of compounds for three days and comparing the signal to cells treated with vehicle (DMSO). Cell growth was calculated relative to vehicle (DMSO) treated control wells. […]
(In ATP-based viability assays light output follows the ATP content of the culture.)

The test system of another assay is SW837. The description is as above. The conditions noted are these: Homo sapiens; SW837, colon; BRAF WT, KRAS G12C, PIK3CA WT; mean ± std; read-out: IC50 Single Agent. The procedure:
as §1, §2, §3

The test system of the next assay is SW480. Described as above. To be noted: Homo sapiens; SW480, colon; BRAF WT, KRAS G12C, PIK3CA WT; mean ± std; read-out: IC50 Single Agent. On the procedure: as §1, §2, §3
For another assay, the system named is LS1034. The assay is described as above. The conditions noted are these: Homo sapiens, LS-1034; LS1034, colon; BRAF WT, KRAS A146T, PIK3CA WT; mean ± std; read-out: IC50 Single Agent. On the procedure: as §1, §2, §3
Another assay relates to DLD1. The assay is described as above. To be noted: Homo sapiens, DLD-1; DLD1, colon; BRAF WT, KRAS G13D, PIK3CA E545K, D549N; mean ± std; read-out: IC50 Single Agent. The procedure:
as §1, §2, §3

A further assay concerns HCT15. Described as above. The conditions noted are these: Homo sapiens, HCT-15; HCT15, colon; BRAF WT, KRAS G13D, PIK3CA D549N, E545K; mean ± std; read-out: IC50 Single Agent. On the procedure:
as §1, §2, §3

Another assay relates to 16R6-4. The assay is described as above. To be noted: Homo sapiens; 16R6-4, melanoma, Compound A resistant clone; BRAF_V600E, KRAS WT; mean ± std; read-out: IC50 Single Agent. On the procedure: as §1, §2, §3
The next assay has as its system Colo205. The assay is described as above. To be noted: Homo sapiens, COLO 205; Colo205, colon; BRAF V600E, KRAS WT, PIK3CA WT; mean ± std; read-out: IC50 Single Agent. The procedure: as §1, §2, §3
The subject of assay [1] is four colon cell lines with BRAF V600E mutation. The experiment in a line: Cell growth inhibition assay (Cell Titer Glo, 3 days), summary over lines. The conditions noted are these: Homo sapiens; span over the four colon cell lines with BRAF V600E mutation; single agent. On the procedure: Human colon tumor lines, Colo205, DLD1, HCC2998, HCT15, HCT8, HT29, KM-12, LS1034, LS174T, NCI-H508, RKO, SW1417, SW1463, SW480, SW837 and T84, and human melanoma line A375 were from ATCC.
All cells were cultured for a minimum of 72 hours prior to cell plating. […] Cells were incubated in the presence of compounds for 3 days. ATP levels were determined by adding Cell Titer Glo® (Promega) according to the manufacturer's protocol. Briefly, Cell Titer Glo® was added each plate, incubated for 30 minutes then luminescent signal was read on the SpectraMax L plate reader with a 0.5 sec integration time.
(§4) Inhibition of cell growth was estimated after treatment with compound or combination of compounds for three days and comparing the signal to cells treated with vehicle (DMSO). Cell growth was calculated relative to vehicle (DMSO) treated control wells.
Combination effects on potency were evaluated using Combination Index (CI) which was calculated with the back-interpolated IC50 values and the mutually non-exclusive equation derived by Chou and Talalay (1): CI=Da/IC50(a)+Db/IC50(b)+(Da×Db)/(IC50(a)×IC50(b))
In general, a CI value <0.9, between 0.9 and 1.1, or >1.1 indicates synergy, additivity and antagonism, respectively. In general, the smaller the CI number, the greater is the strength of synergy.
EOHSA values are defined as increases in improvement (here, in ‘percentage points’ (ppts) difference) produced by the combination over the best single agent at its component dose level for the combination. For single agent and combination treatments, cells were exposed to compounds at a fixed-dose-ratio, and dose response curves were fit to the experimental data and analyzed using regression models. At specified total dose levels of IC50 along the dose response curve, the dose combination (corresponding to IC50) was determined for making EOHSA statistical inferences.

Assay [2] concerns seven Compound A resistant clones derived from the A375PF11 melanoma cell line. The experiment in a line: Cell growth inhibition assay (Cell Titer Glo, 3 days), summary over clones. The conditions noted are these: Homo sapiens, A375P-F11; seven Compound A resistant clones (12R8-3, 12R8-1, 12R5-3, 16R5-2, 16R6-3, 16R6-4, 12R5-1); single agent. The procedure:
as §1
All cells were cultured for a minimum of 72 hours prior to cell plating. […] ATP levels were determined by adding Cell Titer Glo® (Promega) according to the manufacturer's protocol. Briefly, Cell Titer Glo® was added each plate, incubated for 30 minutes then luminescent signal was read on the SpectraMax L plate reader with a 0.5 sec integration time.
as §4
Combination effects on potency were evaluated using Combination Index (CI) which was calculated with the back-interpolated IC50 values and the mutually non-exclusive equation derived by Chou and Talalay (1): CI=Da/IC50(a)+Db/IC50(b)+(Da×Db)/(IC50(a)×IC50(b)) […]

Among the data in US9402846B2, “Combination of inhibitor of B-Raf and inhibitor of AKT in the treatment of cancer” (Novartis AG, priority 2009, dated 2016) are IC50 values, retold here.

Bounds are passed on as bounds.

As a reminder, the IC50 is the point on the concentration scale where inhibition reaches its midpoint.

On to `Cn1ncc(Cl)c1-c1cc(C(=O)N[C@H](CN)Cc2ccc(F)c(F)c2)oc1Cl` [Compound B, N-{(1S)-2-amino-1-[(3,4-difluorophenyl)methyl]ethyl}-5-chloro-4-(4-chloro-1-methyl-1H-pyrazol-5-yl)-2-furancarboxamide], for which the IC50 with 16R6-3 is over 10 µM; in the assay with SW837, over 10 µM; with SW480 it was 5.62 ± 1.85 µM; in the assay on LS1034, 6.39 ± 3.55 µM; in the assay with DLD1 it was over 10 µM; in the assay with HCT15, 4.21 ± 0.834 µM. The half-maximal inhibitory concentration (IC50) in the assay on 16R6-4 was over 10 µM; with Colo205, 0.908 ± 0.605 µM; in assay [1], 0.29 to 2.59 µM; in assay [2], at least 7 µM.

On to `CC(C)(C)c1nc(-c2cccc(NS(=O)(=O)c3c(F)cccc3F)c2F)c(-c2ccnc(N)n2)s1` [Compound A, N-{3-[5-(2-Amino-4-pyrimidinyl)-2-(1,1-dimethylethyl)-1,3-thiazol-4-yl]-2-fluorophenyl}-2,6-difluorobenzenesulfonamide], for which the IC50 in the assay with 16R6-3 was over 10 µM; in the assay with SW837, 5.44 ± 7.69 µM; in the assay with SW480, over 10 µM; in the assay on LS1034 it was over 10 µM; with DLD1, over 10 µM; with HCT15, over 10 µM. Moreover, the results for the IC50 (in the assay on 16R6-4; in the assay on Colo205; in [1]) were over 10 µM, 0.018 ± 0.003 µM and 0.018 to 3.32 µM, respectively.
